Test results: patent US8637537B2, “Serine/threonine kinase inhibitors” (Genentech, Inc., priority 2011, dated 2014)
pKi: −log10 of the molar value. Read-outs that look alike come from different tables or passages of the source.

Biological target: T1, human recombinant GST-PAK1-KD protein (Homo sapiens, UniProt Q13153)
T1 construct: residues #249-545 of human PAK1, UniProtKP/Swiss Q13153; His6 (N); made in house; host or cells: Sf9 insect cells, pAcGP67 baculovirus expression vector
Experiment: GST-PAK1-KD (kinase domain) biochemical assay, microfluidic mobility shift
Settings: Table I, PAK1 Ki class
Experimental: Activity of human recombinant GST-PAK1-KD protein was assessed in vitro assay by observing the phosphorylation of a fluorogenic peptide substrate.
The peptide substrate is a consensus sequence based on various PAK1 substrates reported in the scientific literature. […] Incubations were carried out at 22° C. in MatriCal MP101 384-well Metriplates™. […] Following the 30-minute incubation, the assay mixtures were quenched by the addition of 3 μL of 250 mM EDTA, and the substrate and phosphorylated product were separated by capillary electrophoresis and detected using LabChip® Caliper 3000 (Caliper Life Sciences).

T1 sequence (Q13153 249-545): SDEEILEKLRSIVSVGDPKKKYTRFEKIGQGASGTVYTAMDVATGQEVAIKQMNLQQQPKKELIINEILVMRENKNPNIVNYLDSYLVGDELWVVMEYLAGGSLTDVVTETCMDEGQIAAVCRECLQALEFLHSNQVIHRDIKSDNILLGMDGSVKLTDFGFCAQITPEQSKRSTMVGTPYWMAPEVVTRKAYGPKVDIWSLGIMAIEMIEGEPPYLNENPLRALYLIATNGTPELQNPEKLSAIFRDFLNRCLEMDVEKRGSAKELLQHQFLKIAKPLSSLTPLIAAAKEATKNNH

pKi (read-out: Ki) | pKi (Ki) | SMILES
< 6.00 | – | c1cc(Nc2cc(C3CC3)[nH]n2)nc(NCc2ccc3cc[nH]c3c2)n1 [I-35, N^2-((1H-Indol-6-yl)methyl)-N^4-(5-cyclopropyl-1H-pyrazol-3-yl)pyrimidine-2,4-diamine]
> 7.30 | – | c1cc(CNc2nccc(Nc3cc(C4CCC4)[nH]n3)n2)c2cc[nH]c2c1 [I-36, N^2-((1H-indol-4-yl)methyl)-N^4-(5-cyclobutyl-1H-pyrazol-3-yl)pyrimidine-2,4-diamine]
> 7.30 | – | O=C(c1c[nH]c2cccc(CNc3nccc(Nc4cc(C5CC5)[nH]n4)n3)c12)C(F)(F)F [I-37, 1-(4-((4-(5-cyclopropyl-1H-pyrazol-3-ylamino)pyrimidin-2-ylamino)methyl)-1H-indol-3-yl)-2,2,2-trifluoroethanone]
6.60 to 7.30 | – | CN(Cc1cccc2[nH]ccc12)c1nccc(Nc2cc(C3CC3)[nH]n2)n1 [I-40, N^2-((1H-Indol-4-yl)methyl)-N^4-(5-cyclopropyl-1H-pyrazol-3-yl)-N^2-methylpyrimidine-2,4-diamine]
6.00 to 6.60 | – | FC(F)(F)c1cc(Nc2cc(C3CC3)[nH]n2)nc(NCc2cccc3[nH]ccc23)n1 [I-41, N^2-((1H-indol-4-yl)methyl)-N^4-(5-cyclopropyl-1H-pyrazol-3-yl)-6-(trifluoromethyl)pyrimidine-2,4-diamine]
6.00 to 6.60 | – | CC[C@@H](Nc1nccc(Nc2cc(C3CC3)[nH]n2)n1)c1ccc2[nH]cnc2c1 [I-43, N^2-[(1R)-1-(1H-benzimidazol-5-yl)propyl]-N^4-(5-cyclopropyl-1H-pyrazol-3-yl)pyrimidine-2,4-diamine]
6.60 to 7.30 | – | C[C@H](Nc1nccc(Nc2cc(C3CCCO3)[nH]n2)n1)c1ccc2[nH]cnc2c1 (stereo partly drawn) [I-44, N^2—((S)-1-(1H-benzo[d]imidazol-5-yl)ethyl)-N^4-(5-(tetrahydrofuran-2-yl)-1H-pyrazol-3-yl)pyrimidine-2,4-diamine]
6.60 to 7.30 | – | C[C@H](Nc1ncc(Cl)c(Nc2cc(C3CC3)[nH]n2)n1)c1ccc2[nH]cnc2c1 [I-46, (S)—N^2-(1-(1H-benzo[d]imidazol-5-yl)ethyl)-5-chloro-N^4-(5-cyclopropyl-1H-pyrazol-3-yl)pyrimidine-2,4-diamine]
6.00 to 6.60 | – | Fc1ccc(CNc2nccc(Nc3cc(C4CC4)[nH]n3)n2)c2cc[nH]c12 [I-47, N^4-(5-cyclopropyl-1H-pyrazol-3-yl)-N^2-((7-fluoro-1H-indol-4-yl)methyl)pyrimidine-2,4-diamine]
6.60 to 7.30 | – | c1cc(CNc2nccc(Nc3cc(CC4CC4)[nH]n3)n2)c2cc[nH]c2c1 [I-48, N^2-((1H-indol-4-yl)methyl)-N^4-(5-(cyclopropylmethyl)-1H-pyrazol-3-yl)pyrimidine-2,4-diamine]
6.60 to 7.30 | – | c1cc(CNc2nccc(Nc3cc(C4CCCC4)[nH]n3)n2)c2cc[nH]c2c1 [I-50, N^2-((1H-indol-4-yl)methyl)-N^4-(5-cyclopentyl-1H-pyrazol-3-yl)pyrimidine-2,4-diamine]
6.60 to 7.30 | – | c1cc(CNc2nccc(Nc3cc(C4CCOC4)[nH]n3)n2)c2cc[nH]c2c1 (stereo not drawn) [I-51, N^2-((1H-indol-4-yl)methyl)-N^4-(5-(tetrahydrofuran-3-yl)-1H-pyrazol-3-yl)pyrimidine-2,4-diamine]
6.60 to 7.30 | – | Cc1ccc(CNc2nccc(Nc3cc(C4CC4)[nH]n3)n2)c2cc[nH]c12 [I-52, N^4-(5-Cyclopropyl-1H-pyrazol-3-yl)-N^2-((7-methyl-1H-indol-4-yl)methyl)pyrimidine-2,4-diamine]
6.60 to 7.30 | – | C[C@H](c1ccc2[nH]cnc2c1)N(C)c1nccc(Nc2cc(C3CC3)[nH]n2)n1 [I-55, (R)—N^2-(1-(1H-benzo[d]imidazol-5-yl)ethyl)-N^4-(5-cyclopropyl-1H-pyrazol-3-yl)-N^2-methylpyrimidine-2,4-diamine]
6.60 to 7.30 | – | CC(C)c1cc(Nc2ccnc(NCc3cccc4[nH]ccc34)n2)n[nH]1 [I-58, N^2-((1H-indol-4-yl)methyl)-N^4-(5-isopropyl-1H-pyrazol-3-yl)pyrimidine-2,4-diamine]
6.60 to 7.30 | – | C[C@H](Nc1nccc(Nc2cc([C@@H]3CC3(F)F)[nH]n2)n1)c1ccc2[nH]cnc2c1 [I-61, N^2—((S)-1-(1H-benzo[d]imidazol-5-yl)ethyl)-N^4-(5-((S)-2,2-difluorocyclopropyl)-1H-pyrazol-3-yl)pyrimidine-2,4-diamine]
6.60 to 7.30 | – | C[C@H](Nc1nccc(Nc2cc([C@@H]3C[C@@H]3F)[nH]n2)n1)c1ccc2[nH]ccc2c1 [I-64, N^2—((S)-1-(1H-indol-5-yl)ethyl)-N^4-(5-((1S,2S)-2-fluorocyclopropyl)-1H-pyrazol-3-yl)pyrimidine-2,4-diamine]
> 7.30 | – | C[C@H](Nc1nccc(Nc2cc([C@H]3C[C@H]3F)[nH]n2)n1)c1ccc2[nH]ccc2c1 [I-65, N^2—((S)-1-(1H-indol-5-yl)ethyl)-N^4-(5-((1R,2R)-2-fluorocyclopropyl)-1H-pyrazol-3-yl)pyrimidine-2,4-diamine]
> 7.30 | – | CCN(Cc1ccc2[nH]cnc2c1)c1nccc(Nc2cc(C3CC3)[nH]n2)n1 [I-71, N^2-((1H-benzo[d]imidazol-5-yl)methyl)-N^4-(5-cyclopropyl-1H-pyrazol-3-yl)-N^2-ethylpyrimidine-2,4-diamine]
> 7.30 | – | C[C@H](Nc1nccc(Nc2cc([C@H]3C[C@@H]3F)[nH]n2)n1)c1ccc2[nH]ccc2c1 [I-73, N^2—((S)-1-(1H-indol-5-yl)ethyl)-N^4-(5-((1R,2S)-2-fluorocyclopropyl)-1H-pyrazol-3-yl)pyrimidine-2,4-diamine]
> 7.30 | – | FC1(F)C[C@@H]1c1cc(Nc2ccnc(NCc3ccc4[nH]cnc4c3Cl)n2)n[nH]1 [I-75, (R)—N^2-((4-chloro-1H-benzo[d]imidazol-5-yl)methyl)-N^4-(5-(2,2-difluorocyclopropyl)-1H-pyrazol-3-yl)pyrimidine-2,4-diamine]

Continued, compound first:

SMILES | pKi (read-out: Ki) | pKi (Ki)
Cn1ccc2cc(CNc3nccc(Nc4cc(C5CC5)[nH]n4)n3)ccc21 [I-33, N^4-(5-Cyclopropyl-1H-pyrazol-3-yl)-N^2-((1-methyl-1H-indol-5-yl)methyl)pyrimidine-2,4-diamine] | 6.00 to 6.60 | –
C[C@H](Nc1nccc(Nc2cc(C3CC3)[nH]n2)n1)c1ccc2cc[nH]c2c1 [I-34, (S)—N^2-(1-(1H-indol-6-yl)ethyl)-N^4-(5-cyclopropyl-1H-pyrazol-3-yl)pyrimidine-2,4-diamine] | 6.00 to 6.60 | –
c1cc(CNc2nccc(Nc3cc(C4CC4)[nH]n3)n2)c2cc[nH]c2c1 [I-38, N^2-((1H-Indol-4-yl)methyl)-N^4-(5-cyclopropyl-1H-pyrazol-3-yl)pyrimidine-2,4-diamine] | 6.60 to 7.30 | –
c1cc(CNc2nccc(Nc3cc(OCC4CC4)[nH]n3)n2)c2cc[nH]c2c1 [I-42, N^2-((1H-indol-4-yl)methyl)-N^4(5-(cyclopropylmethoxy)-1H-pyrazol-3-yl)pyrimidine-2,4-diamine] | 6.00 to 6.60 | –
Clc1cnc(NCc2cccc3[nH]ccc23)nc1Nc1cc(C2CC2)[nH]n1 [I-49, N^2-((1H-indol-4-yl)methyl)-5-chloro-N^4-(5-cyclopropyl-1H-pyrazol-3-yl)pyrimidine-2,4-diamine] | 6.00 to 6.60 | –
Fc1cc(CNc2nccc(Nc3cc(C4CC4)[nH]n3)n2)c2cc[nH]c2c1 [I-53, N^4-(5-cyclopropyl-1H-pyrazol-3-yl)-N^2-((6-fluoro-1H-indol-4-yl)methyl)pyrimidine-2,4-diamine] | > 7.30 | –
Cc1cc(Nc2cc(C3CC3)[nH]n2)nc(NCc2cccc3[nH]ccc23)n1 [I-54, N^2-((1H-indol-4-yl)methyl)-N^4-(5-cyclopropyl-1H-pyrazol-3-yl)-6-methylpyrimidine-2,4-diamine] | 6.60 to 7.30 | –
Cc1cc(Nc2ccnc(NCc3cccc4[nH]ccc34)n2)n[nH]1 [I-56, N^2-((1H-indol-4-yl)methyl)-N^4-(5-methyl-1H-pyrazol-3-yl)pyrimidine-2,4-diamine] | < 6.00 | –
C[C@@H](Nc1nccc(Nc2cc(C3CC3)[nH]n2)n1)c1ccc2[nH]ccc2c1 [I-60, (R)—N^2-(1-(1H-indol-5-yl)ethyl)-N^4-(5-cyclopropyl-1H-pyrazol-3-yl)pyrimidine-2,4-diamine] | – | < 6.00
OCCN(Cc1ccc2[nH]cnc2c1)c1nccc(Nc2cc(C3CC3)[nH]n2)n1 [I-63, 2-(((1H-benzo[d]imidazol-5-yl)methyl)(4-(5-cyclopropyl-1H-pyrazol-3-ylamino)pyrimidin-2-yl)amino)ethanol] | 6.60 to 7.30 | –
C[C@H](Nc1nccc(Nc2cc([C@H]3C[C@H]3F)[nH]n2)n1)c1ccc2[nH]cnc2c1 [I-68, N^2—((S)-1-(1H-benzo[d]imidazol-5-yl)ethyl)-N^4-(5-((1R,2R)-2-fluorocyclopropyl)-1H-pyrazol-3-yl)pyrimidine-2,4-diamine] | > 7.30 | –
C[C@H](Nc1nccc(Nc2cc([C@@H]3C[C@H]3F)[nH]n2)n1)c1ccc2[nH]cnc2c1 [I-69, N^2—((S)-1-(1H-benzo[d]imidazol-5-yl)ethyl)-N^4-(5-((1S,2R)-2-fluorocyclopropyl)-1H-pyrazol-3-yl)pyrimidine-2,4-diamine] | > 7.30 | –
C[C@H](Nc1nccc(Nc2cc([C@H]3C[C@@H]3F)[nH]n2)n1)c1ccc2[nH]cnc2c1 [I-70, N^2—((S)-1-(1H-benzo[d]imidazol-5-yl)ethyl)-N^4-(5-((1R,2S)-2-fluorocyclopropyl)-1H-pyrazol-3-yl)pyrimidine-2,4-diamine] | > 7.30 | –
C[C@H](Nc1nccc(Nc2cc([C@@H]3C[C@H]3F)[nH]n2)n1)c1ccc2[nH]ccc2c1 [I-72, N^2—((S)-1-(1H-indol-5-yl)ethyl)-N^4-(5-((1S,2R)-2-fluorocyclopropyl)-1H-pyrazol-3-yl)pyrimidine-2,4-diamine] | > 7.30 | –
FC1(F)C[C@H]1c1cc(Nc2ccnc(NCc3ccc4[nH]cnc4c3Cl)n2)n[nH]1 [I-74, (S)—N^2-((4-chloro-1H-benzo[d]imidazol-5-yl)methyl)-N^4-(5-(2,2-difluorocyclopropyl)-1H-pyrazol-3-yl)pyrimidine-2,4-diamine] | > 7.30 | –
